Laboratory results published in paper PMC10801920 (Proceedings of the National Academy of Sciences of the …, 2024).

Columns and labels:
CeSpartin = target: T1, CeSpartin (Caenorhabditis elegans, UniProt O44735); experiment: FRET-based lipid transfer between tethered liposomes; format: biochemical; conditions: 30 C, pH 8.0, labelled compound
T1 sequence (O44735 1-476): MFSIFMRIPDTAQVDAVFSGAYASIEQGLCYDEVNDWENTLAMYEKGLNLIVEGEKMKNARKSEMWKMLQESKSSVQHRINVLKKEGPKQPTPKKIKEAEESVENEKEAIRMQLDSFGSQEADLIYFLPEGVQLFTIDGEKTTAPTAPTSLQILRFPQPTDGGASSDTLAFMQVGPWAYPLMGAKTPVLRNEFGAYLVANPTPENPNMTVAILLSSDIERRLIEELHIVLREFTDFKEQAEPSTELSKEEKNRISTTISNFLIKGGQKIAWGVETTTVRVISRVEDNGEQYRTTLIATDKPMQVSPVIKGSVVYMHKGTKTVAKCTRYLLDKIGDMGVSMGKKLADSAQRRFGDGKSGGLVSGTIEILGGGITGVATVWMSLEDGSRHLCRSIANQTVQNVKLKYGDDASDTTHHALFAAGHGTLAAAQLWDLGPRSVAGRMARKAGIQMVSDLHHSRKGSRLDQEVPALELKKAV

CtSpartinLSD = target: T2, CtSpartinLSD (Thermochaetoides thermophila, UniProt G0S883); experiment: native gel comigration; format: binding; conditions: on ice, 2 h; labelled compound; also transferred between liposomes
T2 sequence (G0S883 186-480): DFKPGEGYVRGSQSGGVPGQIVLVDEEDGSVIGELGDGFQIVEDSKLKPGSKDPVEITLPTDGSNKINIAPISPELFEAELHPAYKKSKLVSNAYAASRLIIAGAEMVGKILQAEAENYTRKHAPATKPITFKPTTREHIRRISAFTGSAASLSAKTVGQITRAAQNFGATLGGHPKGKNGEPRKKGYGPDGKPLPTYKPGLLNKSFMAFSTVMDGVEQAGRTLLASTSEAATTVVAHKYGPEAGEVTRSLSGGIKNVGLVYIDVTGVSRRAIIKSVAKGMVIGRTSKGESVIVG

CtSpartinL = target: T3, CtSpartinL (Thermochaetoides thermophila, UniProt G0S883); experiment: FRET-based lipid transfer between tethered liposomes; format: biochemical; conditions: 30 C, pH 8.0; labelled compound
T3 sequence (G0S883 7-480): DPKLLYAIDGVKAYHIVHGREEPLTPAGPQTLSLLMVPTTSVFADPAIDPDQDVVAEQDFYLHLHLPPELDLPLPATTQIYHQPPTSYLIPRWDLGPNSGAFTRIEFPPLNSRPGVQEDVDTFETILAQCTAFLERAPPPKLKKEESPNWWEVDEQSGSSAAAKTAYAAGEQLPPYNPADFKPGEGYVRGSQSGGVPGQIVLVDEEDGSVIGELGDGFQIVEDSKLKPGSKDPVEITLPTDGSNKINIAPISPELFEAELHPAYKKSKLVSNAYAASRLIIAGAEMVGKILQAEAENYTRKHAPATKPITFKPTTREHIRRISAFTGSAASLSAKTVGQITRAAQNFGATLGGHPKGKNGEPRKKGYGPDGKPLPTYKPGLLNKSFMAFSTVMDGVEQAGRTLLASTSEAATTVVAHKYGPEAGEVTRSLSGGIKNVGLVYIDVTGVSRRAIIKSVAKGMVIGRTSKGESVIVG

[1] = target: C. elegans spartin (CeSpartin) (C. elegans); experiment: native gel or EMSA
[2] = target: spartin-like protein from Chaetomium thermophilum (CtSpartinL), residues 7-480 (Chaetomium thermophilum); experiment: native gel or EMSA
native gel or EMSA = target: the molecule itself; experiment: native gel or EMSA

Molecule: CCCCCCCCCCCCCCCC(=O)OC[C@H](COP(=O)(O)OCCN)OC(=O)CCCCCNc1ccc([N+](=O)[O-])c2nonc12 [NBD-PE, 1-palmitoyl-2-{6-[(7-nitro-2-1,3-benzoxadiazol-4-yl)amino]hexanoyl}-sn-glycero-3-phosphoethanolamine]
- FRET-based lipid transfer between tethered liposomes (CeSpartin; less robust than NBD-PC): we observed fluorescence increases consistent with NBD-PC or NBD-PE transfer

Molecule: CCCCCCCCCCCCCCCC(=O)OC[C@H](COP(=O)([O-])OCC[N+](C)(C)C)OC(=O)CCCCCNc1ccc([N+](=O)[O-])c2nonc12 [NBD-PC, 1-palmitoyl-2-{6-[(7-nitro-2-1,3-benzoxadiazol-4-yl)amino]hexanoyl}-sn-glycero-3-phosphocholine]
- native gel comigration (CtSpartinLSD): senescence domain fragment comigrates with NBD-PC on native gels
- FRET-based lipid transfer between tethered liposomes (CeSpartin): we observed fluorescence increases consistent with NBD-PC or NBD-PE transfer
- FRET-based lipid transfer between tethered liposomes (CtSpartinL): addition of CeSpartin, HsSpartin or CtSpartinL to the liposomes all result in increased NBD fluorescence

Molecule: C. elegans spartin (CeSpartin) (natural protein)
- stoichiometry N [1]: 3

Molecule: spartin-like protein from Chaetomium thermophilum (CtSpartinL), residues 7-480 (natural protein)
- stoichiometry N [2]: 3

B1: human spartin (HsSpartin) (natural protein, UniProt Q8N0X7 1-666, looked up)
chain: MEQEPQNGEPAEIKIIREAYKKAFLFVNKGLNTDELGQKEEAKNYYKQGIGHLLRGISISSKESEHTGPGWESARQMQQKMKETLQNVRTRLEILEKGLATSLQNDLQEVPKLYPEFPPKDMCEKLPEPQSFSSAPQHAEVNGNTSTPSAGAVAAPASLSLPSQSCPAEAPPAYTPQAAEGHYTVSYGTDSGEFSSVGEEFYRNHSQPPPLETLGLDADELILIPNGVQIFFVNPAGEVSAPSYPGYLRIVRFLDNSLDTVLNRPPGFLQVCDWLYPLVPDRSPVLKCTAGAYMFPDTMLQAAGCFVGVVLSSELPEDDRELFEDLLRQMSDLRLQANWNRAEEENEFQIPGRTRPSSDQLKEASGTDVKQLDQGNKDVRHKGKRGKRAKDTSSEEVNLSHIVPCEPVPEEKPKELPEWSEKVAHNILSGASWVSWGLVKGAEITGKAIQKGASKLRERIQPEEKPVEVSPAVTKGLYIAKQATGGAAKVSQFLVDGVCTVANCVGKELAPHVKKHGSKLVPESLKKDKDGKSPLDGAMVVAASSVQGFSTVWQGLECAAKCIVNNVSAETVQTVRYKYGYNAGEATHHAVDSAVNVGVTAYNINNIGIKAMVKKTATQTGHTLLEDYQIVDNSQRENQEGAANVNVRGEKDEQTKEVKEAKKKDK
- stoichiometry N (native gel or EMSA): ~3
